The supplement of paper PMC9912026

System: A375_Cra_F7_5/13
Test: pERK immunofluorescence, normalised; higher = more ERK phosphorylation
Conditions: vemurafenib 0 µM, drug treatment time 24 h
Protocol: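 A375 or A375 CRISPRa-EGFR (A375_Cra_F7_5/13) cells were adapted for 24 h to a cobimetinib dose series, with or without 1 uM vemurafenib, then stimulated with EGF (100 ng/mL) or mock medium and fixed at the indicated times. pERK was measured by immunofluorescence as the population mean normalised to baseline, with the SD of technical replicates (n=2).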

O=C(c1ccc(F)c(F)c1Nc1ccc(I)cc1F)N1CC(O)([C@@H]2CCCCN2)C1 [cobimetinib]
pERK immunofluorescence
Conditions	cobimetinib 31.62 pM	cobimetinib 0.0001 µM	cobimetinib 0.000316228 µM	cobimetinib 0.001 µM	cobimetinib 0.003162278 µM	cobimetinib 0.01 µM	cobimetinib 0.031622777 µM	cobimetinib 0.1 µM	cobimetinib 0.316227766 µM	cobimetinib 1 µM
EGF 0 ng/mL, time after EGF/mock 0.083 h	0.992	1.01	0.951	0.771	0.467	0.234	0.142	0.111	0.0968	0.0989
EGF 0 ng/mL, time after EGF/mock 0.5 h	0.968	0.9446	0.859	0.742	0.422	0.214	0.177	0.143	0.0997	0.09394
EGF 0 ng/mL, time after EGF/mock 2 h	1.05	1.018	1.03	0.8492	0.55	0.217	0.121	0.107	0.1	0.099798
EGF 0 ng/mL, time after EGF/mock 8 h	0.974	0.999	0.9603	0.801	0.47	0.189	0.102	0.086	0.082	0.082503
EGF 0 ng/mL, time after EGF/mock 24 h	1.07	1.053	1.04	0.927	0.531	0.189	0.116	0.1	0.08927	0.0841
EGF 100 ng/mL, time after EGF/mock 0.083 h	1.47	1.44	1.43	1.42	1.37	1.27	1.15	0.883	0.31	0.111
EGF 100 ng/mL, time after EGF/mock 0.5 h	1.35	1.34	1.31	1.36	1.32	1.26	1.15	1.02	0.675	0.179
EGF 100 ng/mL, time after EGF/mock 2 h	1.21	1.194	1.14	1.08	0.926	0.7446	0.65813	0.527	0.341	0.137
EGF 100 ng/mL, time after EGF/mock 8 h	0.99	0.999	0.997	0.8777	0.735	0.5778	0.475	0.3675	0.221	0.1
EGF 100 ng/mL, time after EGF/mock 24 h	1.07	1.08	1.084	1.04	0.902	0.689	0.5819	0.465	0.273	0.107
